From patent US5521069A, “Genomic DNA exons having exons encoding human pituitary adenylate cyclase activity peptide with 38 amino acids residues(PACAP38) and a promoter thereof” (Takeda Chemical Industries, Ltd., priority 1990, dated 1996)
Where no end group is shown, it is not given here.

What was measured:
[1] = test system: rat pituicytes; assay: Adenylate Cyclase Stimulating Test in Rat Pituicyte Culture; type: cell-based; details: Experiment 2, blank 1.35 ± 0.05
From the text: The amino acid sequence of sheep PACAP38 is believed to be identical to that of human PACAP38. […] The minimum effective amount was 10^-12 M, and it was shown that the activity increased with increasing concentration.

[2] = Hypotensive activity in anesthetized male Wistar rats; type: in vivo, rat; details: nembutal anesthesia
Description: Using male Wistar rats having a body weight of 350 g under nembutal anesthesia, the hypotensive activity was measured.

Row | Substance | cAMP (M ± SEM) ([1]; 10^-7 M) [p mol/ml] | cAMP (M ± SEM) ([1]; 10^-8 M) [p mol/ml] | cAMP (M ± SEM) ([1]; 10^-9 M) [p mol/ml] | cAMP (M ± SEM) ([1]; 10^-10 M) [p mol/ml] | cAMP (M ± SEM) ([1]; 10^-11 M) [p mol/ml] | cAMP (M ± SEM) ([1]; 10^-12 M) [p mol/ml] | Hypotensive activity (decrease from normal value) ([2]; dosage 0.3 n mole/kg) [mm Hg] | Hypotensive activity (decrease from normal value) ([2]; dosage 1.0 n mole/kg) [mm Hg] | Hypotensive activity (decrease from normal value) ([2]; dosage 3.0 n mole/kg) [mm Hg]
1 | PACAP27 NH2 [Syn.27p-NH2] | 9.20 ± 0.20 | 9.20 ± 0.00 | 7.90 ± 0.30 | 4.00 ± 0.20 | 2.55 ± 0.15 | 2.05 ± 0.15 | 14.5 ± 3.1 | 51.9 ± 9.6 | 4.1
2 | PACAP38 NH2 (HSDGIFTDSYSRYRKQMAVKKYLAAVLGKRYKQRVKNK-NH2; UniProt P18509 132-169, looked up) |  |  |  |  |  |  | 3.2 ± 1.9 | 17.4 ± 2.4 | 29.8 ± 3.6
